Activity calls are given as the source filed them. No cut-off for these calls is given here.
How the values were obtained:
[1] = system: Plasmodium falciparum; test: Antiplasmodial activity against Plasmodium falciparum 3D7; type: functional, organism-based
[2] = Cytotoxicity against human U-937 cells; type: toxicity, cell-based
[3] = system: Plasmodium falciparum; test: Antimalarial activity against […] infected in human RBC assessed as inhibition of plasmodial growth at 1 uM by SYBR green dye based spectrofluorometric analysis relative to control; type: functional; settings: 3D7, Erythrocyte
[4] = system: Plasmodium falciparum; test: Antimalarial activity against […] infected in human RBC assessed as inhibition of plasmodial growth at 10 uM by SYBR green dye based spectrofluorometric analysis relative to control; type: functional; settings: 3D7, Erythrocyte
[5] = Cytotoxicity against human HepG2 cells; type: toxicity, cell-based
[6] = system: Plasmodium falciparum; test: Antimalarial activity against chloroquine-sensitive synchronized late stage trophozoite Plasmodium falciparum 3D7 infected in human RBC assessed as inhibition of plasmodial growth by giemsa staining based analysis; type: functional, organism-based; settings: 3D7, Erythrocyte
[7] = system: Plasmodium falciparum; test: Antimalarial activity against chloroquine-resistant synchronized late stage trophozoite Plasmodium falciparum RKL-9 infected in human RBC assessed as inhibition of plasmodial growth by giemsa staining based analysis; type: functional, organism-based; settings: RKL-9, Erythrocyte
[8] = system: Plasmodium falciparum; test: Antimalarial activity against chloroquine-resistant Plasmodium falciparum RKL-9 infected in human RBC assessed as reduction of plasmodial growth by SYBR green dye based spectrofluorometric analysis; type: functional, organism-based
[9] = system: Erythrocyte; test: Hemolytic activity in human RBC assessed as hemolysis upto 5 uM incubated for 2 hrs; type: toxicity, cell-based
[10] = Therapeutic index, ratio of CC50 for human HepG2 cells to IC50 for chloroquine-sensitive synchronized late stage trophozoite Plasmodium falciparum 3D7 infected in human RBC; type: toxicity; settings: read-out: TI
[11] = Cytotoxicity against […] cell upto 500 uM; type: toxicity, cell-based; settings: human
[12] = system: Plasmodium falciparum; test: Antiplasmodial activity against synchronized ring stage Plasmodium falciparum 3D7 infected in human RBC assessed as reduction in parasitemia percentage by measuring defect in invasion stage at IC50 concentration measured after 60 hrs by giemsa staining based light microscopic analysis; type: functional, organism-based
[13] = system: Plasmodium falciparum; test: Antiplasmodial activity against synchronized ring stage Plasmodium falciparum 3D7 infected in human RBC assessed as reduction in parasitemia percentage by measuring defect in egress stage at IC50 concentration measured after 60 hrs by giemsa staining based light microscopic analysis; type: functional, organism-based
[14] = system: Plasmodium falciparum; test: Induction of mitochondrial membrane depolarization in trophozoite stage Plasmodium falciparum 3D7 infected in human RBC assessed as increase in green fluorescence at IC50 concentration incubated for 3 hrs by JC-1 dye based fluorescence microscopic analysis; type: functional, organism-based
[15] = system: Plasmodium falciparum; test: Induction of mitochondrial membrane depolarization in trophozoite stage Plasmodium falciparum 3D7 infected in human RBC assessed as decrease in red to green fluorescence ratio at IC50 concentration incubated for 3 hrs by JC-1 dye based fluorescence microscopic analysis; type: functional, organism-based
[16] = system: Plasmodium falciparum; test: Induction of mitochondrial membrane depolarization in trophozoite stage Plasmodium falciparum 3D7 infected in human RBC assessed as red to green fluorescence ratio at IC50 concentration incubated for 3 hrs by JC-1 dye based spectrofluorometric analysis (reference value: 6.96+/-0.94); type: functional
[17] = system: Plasmodium falciparum; test: Synergistic antimalarial activity against synchronized ring stage Plasmodium falciparum 3D7 infected in human RBC assessed as mean fractional inhibitory concentration at 2:3 ratio of ART to compound incubated for 72 hrs by giemsa staining based flow cytometric analysis; type: functional
[18] = system: Plasmodium falciparum; test: Synergistic antimalarial activity against synchronized ring stage Plasmodium falciparum 3D7 infected in human RBC assessed as mean fractional inhibitory concentration at 1:4 ratio of ART to compound incubated for 72 hrs by giemsa staining based flow cytometric analysis; type: functional
[19] = system: Plasmodium falciparum; test: Binding affinity to recombinant N-terminal 6His tagged Plasmodium falciparum alpha-1 tubulin expressed in Escherichia coli BL21 assessed as dissociation constant at 0.78 to 75 uM by SPR analysis; settings: dose 0.78-75 µM
[20] = system: Plasmodium falciparum; test: Binding affinity to recombinant N-terminal 6His tagged Plasmodium falciparum beta-tubulin expressed in Escherichia coli BL21 at 0.78 to 75 uM by SPR analysis; settings: dose 0.78-75 µM
[21] = system: Plasmodium falciparum; test: Binding affinity to recombinant N-terminal 6His tagged Plasmodium falciparum alpha-1 tubulin expressed in Escherichia coli BL21 assessed as thermo-stabilization incubated at 4 to 80 degreeC for 3 mins followed by 5 mins incubation at room temperature by thermal shift assay; settings: time 8.0 min
[22] = system: Plasmodium berghei; test: Antimalarial activity against Plasmodium berghei ANKA in BALB/c mouse injected with parasite infected erythrocytes assessed as decrease in parasite load at 30 mg/kg, ip administered daily for 7 days relative to control; type: functional; design: scale not given: the % may be the effect or the level left; settings: time 7 day
[23] = system: Plasmodium berghei; test: Antimalarial activity against Plasmodium berghei ANKA in BALB/c mouse injected with parasite infected erythrocytes assessed as reduction in parasitemia at 30 mg/kg, ip administered daily for 7 days and measured after 15 days; type: functional, organism-based; settings: time 15.0 day
[24] = system: Plasmodium berghei; test: Antimalarial activity against Plasmodium berghei ANKA in BALB/c mouse injected with parasite infected erythrocytes assessed as […] mean survival time at 30 mg/kg, ip administered daily for 7 days and measured after 15 days; type: functional; settings: time 15 day
[25] = system: Plasmodium falciparum; test: Antiplasmodial activity against […] incubated for 90 hrs by SYBR green I dye based analysis; type: functional, organism-based; settings: 3D7, 90 h
[26] = Cytotoxicity against human U-937 cells assessed as reduction in cell viability incubated for 24 hrs by MTT assay; type: toxicity, cell-based
[27] = Therapeutic index, ratio of cytotoxicity against […] cells to IC50 for chloroquine-sensitive synchronized late stage trophozoite Plasmodium falciparum 3D7 infected in human RBC; type: toxicity, cell-based; settings: read-out: TI
[28] = system: Plasmodium falciparum; test: Antiplasmodial activity against synchronized ring stage Plasmodium falciparum 3D7 infected in human RBC assessed as failure of egress by measuring accumulation at late schizont stage at IC50 concentration measured after 60 hrs by giemsa staining based light microscopic analysis; type: functional, organism-based
[29] = system: Plasmodium falciparum; test: Antiplasmodial activity against synchronized ring stage Plasmodium falciparum 3D7 infected in human RBC assessed as reduction in transformation into pyknotic trophozoites by measuring delay in ring maturation at IC50 concentration measured after 60 hrs by giemsa staining based light microscopic analysis; type: functional, organism-based
[30] = system: Plasmodium falciparum; test: Synergistic antimalarial activity against synchronized ring stage Plasmodium falciparum 3D7 infected in human RBC assessed as mean fractional inhibitory concentration at 1:1 ratio of ART to compound incubated for 72 hrs by giemsa staining based flow cytometric analysis; type: functional

CCC(C)[C@H](c1nc2ccccc2n1Cc1cn(-c2ccc(F)cc2)nn1)N1C(=O)c2ccccc2C1=O (stereo partly specified)
IC50 [1]: 0.9 µM | CC50 [2]: 28.8 µM

Cc1ccc(-n2cc(Cn3c([C@@H](CC(C)C)N4C(=O)c5ccc(C)cc5C4=O)nc4ccccc43)nn2)cc1
inhibition at 1 µM [3]: -8.63% | inhibition at 10 µM [4]: 68.9%

CCC(C)[C@H](c1nc2ccccc2n1Cc1cn(-c2ccccc2F)nn1)N1C(=O)c2ccccc2C1=O (stereo partly specified)
inhibition at 1 µM [3]: 8% | inhibition at 10 µM [4]: 87%

CCC(C)[C@H](c1nc2ccccc2n1Cc1cn(-c2ccccc2F)nn1)N1C(=O)c2ccc(C)cc2C1=O (stereo partly specified)
inhibition at 1 µM [3]: -23% | inhibition at 10 µM [4]: 91%

Cc1ccc2c(c1)C(=O)N([C@H](CC(C)C)c1nc3ccccc3n1Cc1cn(-c3ccc(Cl)cc3)nn1)C2=O
IC50 [1]: 0.64 µM | IC50 [5]: > 100 µM | inhibition at 1 µM [3]: 43% | inhibition at 10 µM [4]: 73% | IC50 [6]: 0.74 µM | IC50 [7]: 1.71 µM | Activity [8]: Dose dependent effect | Activity [9]: Non-Toxic | selectivity ratio [10]: > 135 | Activity [11]: Non-Toxic | Activity [12]: Active | Activity [13]: Active | Activity [14]: Active | Activity [15]: Active | Activity [16]: 4.62 | FIC [17]: 0.87 | FIC [18]: 0.98 | Activity [19]: inactive | Activity [20]: inactive | Activity [21]: Active | Activity [22]: 3.6% | Activity [23]: Active | MST [24]: 11.07 days

CC(C)C[C@H](c1nc2ccccc2n1Cc1cn(-c2ccc(C(F)(F)F)cc2)nn1)N1C(=O)c2ccccc2C1=O
inhibition at 1 µM [3]: -53% | inhibition at 10 µM [4]: 88%

Cc1ccc2c(c1)C(=O)N([C@H](CC(C)C)c1nc3ccccc3n1Cc1cn(-c3ccc(C(F)(F)F)cc3)nn1)C2=O
inhibition at 1 µM [3]: 37% | inhibition at 10 µM [4]: 75%

CC(C)C(c1nc2ccccc2n1Cc1cn(-c2ccc(F)cc2)nn1)N1C(=O)c2ccccc2C1=O (stereo unspecified)
IC50 [25]: 3.5 µM | CC50 at 24 h [26]: 0.78 µM

COc1ccc(-n2cc(Cn3c([C@@H](CC(C)C)N4C(=O)c5ccc(C)cc5C4=O)nc4ccccc43)nn2)cc1
inhibition at 1 µM [3]: -43% | inhibition at 10 µM [4]: 65%

CCC(C)[C@H](c1nc2ccccc2n1Cc1cn(-c2ccc(F)cc2F)nn1)N1C(=O)c2ccc(C)cc2C1=O (stereo partly specified)
inhibition at 1 µM [3]: 21% | inhibition at 10 µM [4]: 94%

CC(C)CC(c1nc2ccccc2n1Cc1cn(-c2ccccc2)nn1)N1C(=O)c2ccccc2C1=O (stereo unspecified)
IC50 [25]: 0.9 µM | CC50 at 24 h [26]: 0.91 µM

CC(C)[C@H](c1nc2ccccc2n1Cc1cn(-c2ccc(F)cc2F)nn1)N1C(=O)c2ccccc2C1=O
inhibition at 1 µM [3]: -12% | inhibition at 10 µM [4]: 88%

CCC(C)[C@H](c1nc2ccccc2n1Cc1cn(-c2c(F)c(F)c(F)c(F)c2F)nn1)N1C(=O)c2ccccc2C1=O (stereo partly specified)
inhibition at 1 µM [3]: -44% | inhibition at 10 µM [4]: 77%

Cc1ccc2c(c1)C(=O)N([C@H](CC(C)C)c1nc3ccccc3n1Cc1c[nH]nn1)C2=O
inhibition at 1 µM [3]: -64% | inhibition at 10 µM [4]: 71%

CC(C)[C@H](c1nc2ccccc2n1Cc1cn(-c2c(F)cccc2F)nn1)N1C(=O)c2ccccc2C1=O
inhibition at 1 µM [3]: -26% | inhibition at 10 µM [4]: 91%

CCC(C)C(c1nc2ccccc2n1Cc1c[nH]nn1)N1C(=O)c2ccccc2C1=O (stereo unspecified)
IC50 [25]: 0.7 µM | CC50 at 24 h [26]: 2.08 µM

CCC(C)[C@H](c1nc2ccccc2n1Cc1cn(-c2ccc(F)cc2)nn1)N1C(=O)c2ccc(C)cc2C1=O (stereo partly specified)
IC50 [5]: > 100 µM | inhibition at 1 µM [3]: 20% | inhibition at 10 µM [4]: 64% | IC50 [6]: 2.2 µM | IC50 [7]: 3.43 µM | Activity [8]: Dose dependent effect | Activity [9]: Non-Toxic | selectivity ratio [10]: 46 | Activity [11]: Non-Toxic | selectivity ratio [27]: > 800 | Activity [28]: Active | Activity [14]: Active | Activity [15]: Active | Activity [16]: 5.56 | Activity [19]: inactive | Activity [20]: inactive | Activity [21]: Active

Cc1ccc2c(c1)C(=O)N([C@H](CC(C)C)c1nc3ccccc3n1Cc1cn(-c3ccc(F)cc3)nn1)C2=O
inhibition at 1 µM [3]: 0.3% | inhibition at 10 µM [4]: 46%

CC(C)[C@H](c1nc2ccccc2n1Cc1cn(-c2ccc(C(F)(F)F)cc2)nn1)N1C(=O)c2ccccc2C1=O
IC50 [5]: > 100 µM | inhibition at 1 µM [3]: 22% | inhibition at 10 µM [4]: 75% | IC50 [6]: 2.3 µM | IC50 [7]: 3.92 µM | Activity [8]: Dose dependent effect | Activity [9]: Non-Toxic | selectivity ratio [10]: 43 | Activity [11]: Non-Toxic | Activity [29]: Active | Activity [14]: Active | Activity [15]: Active | Activity [16]: 5.06 | FIC [30]: 0.93 | Activity [22]: 3.9% | Activity [23]: Active | MST [24]: 10.47 days

CCC(C)[C@H](c1nc2ccccc2n1Cc1cn(Cc2ccccc2)nn1)N1C(=O)c2ccccc2C1=O (stereo partly specified)
IC50 [5]: > 100 µM | inhibition at 1 µM [3]: 35% | inhibition at 10 µM [4]: 66% | IC50 [6]: 0.81 µM | IC50 [7]: 1.88 µM | Activity [8]: Dose dependent effect | Activity [9]: Non-Toxic | selectivity ratio [10]: 123 | Activity [11]: Non-Toxic | Activity [29]: Active | Activity [14]: Active | Activity [15]: Active | FIC [18]: 0.67

CCC(C)[C@H](c1nc2ccccc2n1Cc1cn(-c2c(F)c(F)c(F)c(F)c2F)nn1)N1C(=O)c2ccc(C)cc2C1=O (stereo partly specified)
inhibition at 1 µM [3]: -4% | inhibition at 10 µM [4]: 95%

CCC(C)C(c1nc2ccccc2n1Cc1cn(-c2ccc(F)cc2)nn1)N1C(=O)c2ccccc2C1=O (stereo unspecified)
IC50 [25]: 0.9 µM | CC50 at 24 h [26]: 28.8 µM

Source: ChEMBL document CHEMBL5338711, “Designing and development of phthalimides as potent anti-tubulin hybrid molecules against malaria” (Eur J Med Chem, 2022)
